Data: ChEMBL document CHEMBL3885861, “Open TG-GATES”

Species on record: Rattus norvegicus
Experiment: Open TG-GATES - Regimen: Single
Type: toxicity, organism-based, Sprague-Dawley
Design: regimen Single, gender Male, age 6 weeks
Settings: in vivo, po, 300 mg/kg, route gavage, dose level Middle; for APTT / Bas / Eos / Fbg / Hb / Ht / Lym / MCH / MCHC / MCV / Mono / Neu / PT / Plat / RBC / Ret / WBC: tissue Blood; for KIDNEY_L / KIDNEY_R / KIDNEY_TOTAL: tissue Kidney; for LIVER: tissue Liver; for A/G / ALP / ALT / AST / BUN / CRE / Ca / Cl / DBIL / GLC / IP / K / LDH / Na / PL / RALB / TBIL / TC / TG / TP / gamma-GTP: tissue Plasma

## O=C(N[C@H](CO)[C@H](O)c1ccc([N+](=O)[O-])cc1)C(Cl)Cl [CHLORAMPHENICOL]
3 h
  TERMINAL_BW: 221.3 g
  APTT: 16.6 s
  Bas: 0%
  Eos: 1%
  Fbg: 268.4 mg/dL
  Hb: 13.2 g/dL
  Ht: 39%
  Lym: 78.2%
  MCH: 21.8 pg
  MCHC: 33.9%
  MCV: 64.1 fL
  Mono: 3.2%
  Neu: 17.4%
  PT: 14.5 s
  Plat: 114 x10_4/uL
  RBC: 608.8 x10_4/ul
  Ret: 8.3%
  WBC: 71.3 x10_2/uL
  KIDNEY_L: 0.9 g
  KIDNEY_R: 0.9 g
  KIDNEY_TOTAL: 1.9 g
  LIVER: 9.8 g
  A/G: 0.9
  ALP: 1546.4 IU/L
  ALT: 41 IU/L
  AST: 76.6 IU/L
  BUN: 11 mg/dL
  CRE: 0.2 mg/dL
  Ca: 11.5 mg/dL
  Cl: 105.8 meq/L
  DBIL: 0.018 mg/dL
  GLC: 181.8 mg/dL
  IP: 9.1 mg/dL
  K: 4.1 meq/L
  LDH: 66.2 IU/L
  Na: 139.8 meq/L
  PL: 144.2 mg/dL
  RALB: 2.5 g/dL
  TBIL: 0.064 mg/dL
  TC: 76.6 mg/dL
  TG: 66 mg/dL
  TP: 5.5 g/dL
  gamma-GTP: 1.2 IU/L
6 h
  TERMINAL_BW: 221.3 g
  APTT: 17.6 s
  Bas: 0%
  Eos: 0.8%
  Fbg: 284 mg/dL
  Hb: 13.4 g/dL
  Ht: 42.8%
  Lym: 79.8%
  MCH: 21.7 pg
  MCHC: 31.3%
  MCV: 69.4 fL
  Mono: 2.6%
  Neu: 16.8%
  PT: 15 s
  Plat: 107.3 x10_4/uL
  RBC: 618.2 x10_4/ul
  Ret: 8.2%
  WBC: 68.7 x10_2/uL
  KIDNEY_L: 0.9 g
  KIDNEY_R: 1 g
  KIDNEY_TOTAL: 1.9 g
  LIVER: 8.8 g
  A/G: 0.9
  ALP: 1672 IU/L
  ALT: 40.8 IU/L
  AST: 72.2 IU/L
  BUN: 9.4 mg/dL
  CRE: 0.2 mg/dL
  Ca: 11.4 mg/dL
  Cl: 106 meq/L
  DBIL: 0.014 mg/dL
  GLC: 184.4 mg/dL
  IP: 9.8 mg/dL
  K: 4.4 meq/L
  LDH: 79 IU/L
  Na: 141 meq/L
  PL: 138.2 mg/dL
  RALB: 2.5 g/dL
  TBIL: 0.07 mg/dL
  TC: 76.6 mg/dL
  TG: 60 mg/dL
  TP: 5.4 g/dL
  gamma-GTP: 1 IU/L
